Experiments:
crabgrass = assay: Test B pre/postemergence crabgrass; format: in vivo, Digitaria sanguinalis
Outline: (§1)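 Herbicidal effect was estimated by eye on a ten-point control scale after plants spent twelve to sixteen days in a greenhouse following soil or foliar treatment. Foliar sprays targeted plants at one to four leaves; all doses were formulated in a non-phytotoxic solvent with surfactant.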

soybean = assay: Test B pre/postemergence soybean; format: in vivo, Glycine max; settings: for Plant response rating, Soybean: Postemergence
Outline: as §1

cocklebur = assay: Test B pre/postemergence cocklebur; format: in vivo, Xanthium strumarium
Outline: as §1

giant foxtail = assay: Test B pre/postemergence giant foxtail; format: in vivo, Setaria faberii
Outline: as §1

surinam grass = assay: Test B pre/postemergence surinam grass; format: in vivo, Brachiaria decumbens
Outline: as §1

bedstraw = assay: Test B pre/postemergence bedstraw; format: in vivo, Galium aparine; settings: Preemergence
Outline: as §1

velvetleaf = assay: Test B pre/postemergence velvetleaf; format: in vivo, Abutilon theophrasti; settings: for Plant response rating, Velvetleaf: Postemergence
Outline: as §1

wheat = assay: Test B pre/postemergence wheat; format: in vivo, Triticum aestivum; settings: for Plant response rating, Wheat: Postemergence
Outline: as §1

corn = assay: Test B pre/postemergence corn; format: in vivo, Zea mays
Outline: as §1

wild oat = assay: Test B pre/postemergence wild oat; format: in vivo, Avena fatua; settings: for Plant response rating, Wild oats: Postemergence
Outline: as §1

purple nutsedge = assay: Test B pre/postemergence purple nutsedge; format: in vivo, Cyperus rotundus
Outline: as §1

sugar beet = assay: Test B pre/postemergence sugar beet; format: in vivo, Beta vulgaris
Outline: as §1

pigweed = assay: Test B pre/postemergence pigweed; format: in vivo, Amaranthus retroflexus; settings: for Plant response rating, Redroot pigweed: Postemergence
Outline: as §1

rape = assay: Test B pre/postemergence rape; format: in vivo, Brassica napus
Outline: as §1

blackgrass = assay: Test B pre/postemergence blackgrass; format: in vivo, Alopecurus myosuroides
Outline: as §1

morningglory = assay: Test B pre/postemergence morningglory; format: in vivo, Ipomoea hederacea
Outline: as §1

[1] = Postemergence, Rate 62 g/ha, scale of 0 to 10, 0 is no effect, 10 is complete control
[2] = Postemergence, Rate 125 g/ha, scale 0 to 10, 0 is no effect, 10 is complete control
[3] = Postemergence, Rate 500 g/ha, scale of 0 to 10 where 0 is no effect and 10 is complete control
[4] = Preemergence, Rate 62 g/ha, scale 0 to 10 (0 no effect, 10 complete control)
[5] = Preemergence, Rate 125 g/ha, scale 0 to 10, 0 is no effect, 10 is complete control
[6] = Preemergence, Rate 500 g/ha, scale of 0 to 10 where 0 is no effect and 10 is complete control
[7] = Rate 250 g/ha, Postemergence, scale of 0 to 10 where 0 is no effect and 10 is complete control
[8] = Rate 500 g/ha, scale of 0 to 10 where 0 is no effect and 10 is complete control
[9] = Rate 250 g/ha, scale of 0 to 10 where 0 is no effect and 10 is complete control

`CC(Cl)=CCn1c(=O)on(C(=O)N(c2ccccc2)C(C)C)c1=O` [Compound 573] was tested, and the “Crabgrass plant response rating” value (crabgrass; [1]) was 6, the “Crabgrass plant response rating” value (crabgrass; [2]) was 9 and the “Plant response rating, Crabgrass” value (crabgrass; [3]) was 9. For the same compound, the “Crabgrass plant response rating” value (crabgrass; [4]) was 3, the “Crabgrass plant response rating” value (crabgrass; [5]) was 9 and the “Crabgrass plant response rating (0 to 10 scale)” value (crabgrass; Preemergence, Rate 250 g/ha) was 9. The “Crabgrass plant response rating” value (crabgrass; [6]) was 10, the “Plant response rating, Crabgrass” value (crabgrass; [7]) was 9 and the “Plant response rating, Soybean” value (soybean; [8]) was 6. For the same compound, the “Soybean plant response rating” value (soybean; [4]) was 0, the “Soybean plant response rating” value (soybean; [5]) was 0 and the “Soybean plant response rating (0 to 10 scale)” value (soybean; Preemergence, Rate 250 g/ha) was 0. For the same compound, the “Soybean plant response rating” value (soybean; [6]) was 0, the “Plant response rating, Soybean” value (soybean; [9]) was 4 and the “Cocklebur plant response rating” value (cocklebur; [1]) was 0. For the same compound, the “Cocklebur plant response rating” value (cocklebur; [2]) was 0, the “Plant response rating, Cocklebur” value (cocklebur; [3]) was 3 and the “Cocklebur plant response rating” value (cocklebur; [4]) was 0. For the same compound, the “Cocklebur plant response rating” value (cocklebur; [5]) was 0, the “Cocklebur plant response rating (0 to 10 scale)” value (cocklebur; Preemergence, Rate 250 g/ha) was 0 and the “Cocklebur plant response rating” value (cocklebur; [6]) was 0. The “Plant response rating, Cocklebur” value (cocklebur; [7]) was 2, the “Giant foxtail plant response rating” value (giant foxtail; [1]) was 2 and the “Giant foxtail plant response rating” value (giant foxtail; [2]) was 3. The “Plant response rating, Giant foxtail” value (giant foxtail; [3]) was 9, the “Giant foxtail plant response rating” value (giant foxtail; [4]) was 9 and the “Giant foxtail plant response rating” value (giant foxtail; [5]) was 9. For the same compound, the “Giant foxtail plant response rating (0 to 10 scale)” value (giant foxtail; Preemergence, Rate 250 g/ha) was 9, the “Giant foxtail plant response rating” value (giant foxtail; [6]) was 10 and the “Plant response rating, Giant foxtail” value (giant foxtail; [7]) was 9. For the same compound, the “B. signalgrass plant response rating” value (surinam grass; [1]) was 0, the “B. signalgrass plant response rating” value (surinam grass; [2]) was 0 and the “Plant response rating, B. signalgrass” value (surinam grass; [3]) was 0. For the same compound, the “B. signalgrass plant response rating” value (surinam grass; [4]) was 7, the “B. signalgrass plant response rating” value (surinam grass; [5]) was 7 and the “B. signalgrass plant response rating (0 to 10 scale, 0 is no effect, 10 is complete control)” value (surinam grass; Preemergence, Rate 250 g/ha) was 9. For the same compound, the “B. signalgrass plant response rating” value (surinam grass; [6]) was 10, the “Plant response rating, B. signalgrass” value (surinam grass; [7]) was 0 and the “Bedstraw plant response rating” value (bedstraw; Rate 62 g/ha, scale 0 to 10 (0 no effect, 10 complete control)) was 0. For the same compound, the “Bedstraw plant response rating” value (bedstraw; Rate 125 g/ha, scale 0 to 10, 0 is no effect, 10 is complete control) was 0, the “Bedstraw plant response rating (0 to 10 scale)” value (bedstraw; Rate 250 g/ha) was 0 and the “Bedstraw plant response rating” value (bedstraw; [8]) was 0. For the same compound, the “Plant response rating, Velvetleaf” value (velvetleaf; [8]) was 2, the “Velvetleaf plant response rating” value (velvetleaf; [4]) was 0 and the “Velvetleaf plant response rating” value (velvetleaf; [5]) was 0. The “Velvetleaf plant response rating (0 to 10 scale)” value (velvetleaf; Preemergence, Rate 250 g/ha) was 0, the “Velvetleaf plant response rating” value (velvetleaf; [6]) was 3 and the “Plant response rating, Velvetleaf” value (velvetleaf; [9]) was 0. For the same compound, the “Plant response rating, Wheat” value (wheat; [8]) was 0, the “Wheat plant response rating” value (wheat; [4]) was 0 and the “Wheat plant response rating” value (wheat; [5]) was 0. For the same compound, the “Wheat plant response rating (0 to 10 scale)” value (wheat; Preemergence, Rate 250 g/ha) was 0, the “Wheat plant response rating” value (wheat; [6]) was 0 and the “Plant response rating, Wheat” value (wheat; [9]) was 0. The “Corn plant response rating” value (corn; [1]) was 0, the “Corn plant response rating” value (corn; [2]) was 0 and the “Plant response rating, Corn” value (corn; [3]) was 0. The “Corn plant response rating” value (corn; [4]) was 0, the “Corn plant response rating” value (corn; [5]) was 0 and the “Corn plant response rating (0 to 10 scale)” value (corn; Preemergence, Rate 250 g/ha) was 0. For the same compound, the “Corn plant response rating” value (corn; [6]) was 3, the “Plant response rating, Corn” value (corn; [7]) was 0 and the “Plant response rating, Wild oats” value (wild oat; [8]) was 0. For the same compound, the “Wild oats plant response rating” value (wild oat; [4]) was 0, the “Wild oats plant response rating” value (wild oat; [5]) was 0 and the “Wild oats plant response rating (0 to 10 scale)” value (wild oat; Preemergence, Rate 250 g/ha) was 0. For the same compound, the “Wild oats plant response rating” value (wild oat; [6]) was 0, the “Plant response rating, Wild oats” value (wild oat; [9]) was 0 and the “Nutsedge plant response rating” value (purple nutsedge; [1]) was 0. For the same compound, the “Nutsedge plant response rating” value (purple nutsedge; [2]) was 0, the “Nutsedge plant response rating” value (purple nutsedge; [4]) was 0 and the “Nutsedge plant response rating” value (purple nutsedge; [5]) was 0. For the same compound, the “Nutsedge plant response rating (0 to 10 scale)” value (purple nutsedge; Preemergence, Rate 250 g/ha) was 0, the “Nutsedge plant response rating” value (purple nutsedge; [6]) was 0 and the “Plant response rating, Nutsedge” value (purple nutsedge; [7]) was 0. For the same compound, the “Sugarbeets plant response rating” value (sugar beet; [4]) was 0, the “Sugarbeets plant response rating” value (sugar beet; [5]) was 2 and the “Sugarbeets plant response rating (0 to 10 scale)” value (sugar beet; Preemergence, Rate 250 g/ha) was 2. The “Sugarbeets plant response rating” value (sugar beet; [6]) was 2, the “Plant response rating, Sugarbeets” value (sugar beet; [7]) was 0 and the “Plant response rating, Redroot pigweed” value (pigweed; [8]) was 7. For the same compound, the “Redroot pigweed plant response rating” value (pigweed; [4]) was 0, the “Redroot pigweed plant response rating” value (pigweed; [5]) was 0 and the “Redroot pigweed plant response rating (0 to 10 scale)” value (pigweed; Preemergence, Rate 250 g/ha) was 9. The “Redroot pigweed plant response rating” value (pigweed; [6]) was 9, the “Plant response rating, Redroot pigweed” value (pigweed; [9]) was 4 and the “Rape plant response rating” value (rape; [1]) was 0. For the same compound, the “Rape plant response rating” value (rape; [2]) was 2, the “Plant response rating, Rape” value (rape; [3]) was 2 and the “Rape plant response rating” value (rape; [4]) was 2. The “Rape plant response rating” value (rape; [5]) was 2, the “Rape plant response rating (0 to 10 scale)” value (rape; Preemergence, Rate 250 g/ha) was 3 and the “Rape plant response rating” value (rape; [6]) was 3. The “Plant response rating, Rape” value (rape; [7]) was 3, the “Blackgrass plant response rating” value (blackgrass; [1]) was 0 and the “Blackgrass plant response rating” value (blackgrass; [2]) was 0. For the same compound, the “Plant response rating, Blackgrass” value (blackgrass; [3]) was 0, the “Blackgrass plant response rating” value (blackgrass; [4]) was 0 and the “Blackgrass plant response rating” value (blackgrass; [5]) was 0. For the same compound, the “Blackgrass plant response rating (0 to 10 scale)” value (blackgrass; Preemergence, Rate 250 g/ha) was 2, the “Blackgrass plant response rating” value (blackgrass; [6]) was 6 and the “Plant response rating, Blackgrass” value (blackgrass; [7]) was 0. The “Morningglory plant response rating” value (morningglory; [1]) was 10, the “Morningglory plant response rating” value (morningglory; [2]) was 10 and the “Plant response rating, Morningglory” value (morningglory; [3]) was 10. The “Morningglory plant response rating” value (morningglory; [4]) was 0, the “Morningglory plant response rating” value (morningglory; [5]) was 0 and the “Morningglory plant response rating (0 to 10 scale)” value (morningglory; Preemergence, Rate 250 g/ha) was 0. The “Morningglory plant response rating” value (morningglory; [6]) was 4 and the “Plant response rating, Morningglory” value (morningglory; [7]) was 10.

— patent US6737383B1, “Herbicidal oxadiazolidines” (priority 1999, dated 2004)
